# Data from patent US12115178B2, “Acylated active agents and methods of their use for the treatment of autoimmune disorders” (Flagship Pioneering Innovations V, Inc., priority 2018, dated 2024).
# Legend:
# neutrophil = assay: Neutrophil chemokine production assay; type: cell-based, human; conditions: 12 h
# Protocol: A volume 25 mL of human blood was layered over 15 mL of Histopaque®-1077 and centrifuged at 500 g, RT, for 30 min with no break applied to the centrifuge. The PBMC band and Histopaque®-1077 layer were removed leaving behind the bottom red layer which was mixed with 40 mL of 1× red blood cell (RBC) lysis buffer (Sigma-Aldrich) was and split into two 50 mL tubes. The volume for both fractions was brought to 50 mL with RBC lysis buffer, mixed by inversion, and then incubated at RT for 10 min. Solutions were centrifuged at 250 g, for 10 min at RT and the supernatant liquids removed. The reddish pellets were re-suspended in 1 mL of RBC lysis buffer and combined. The cell suspension was incubated for 5 min at RT in RBC lysis buffer. After incubation 45 mL of Hanks Balanced Salt Solution with no calcium, magnesium or phenol red (HBSS−) was added, the cell suspension was spun (250 g for 10 min at RT), and supernatant liquids were removed. The white pellet was re-suspended in 1 mL of HBSS−, and cell counts were determined. The neutrophil cell suspension was brought to a concentration of 1.11e6 cells/mL in RPMI complete (Sigma-Aldrich), and 180 μL of cell suspension was transferred to all wells within a sterile 96-well tissue culture treated plate resulting in 2.0e5 cells/well. […] After incubation, 10 μL of 2 μg/mL LPS solution in RPMI complete was added to each well except for control wells, which received an additional 10 μL of media. Cells were incubated for 12 h (37° C., 5% CO2), after which plates were centrifuged at 250 g, RT, for 5 min and supernatant liquids were obtained and stored at −80° C. until analyzed via Luminex® Multiplex Assay for various chemokines and cytokines. Three data points were acquired from two different blood donors and averaged.
# [1] = test system: Primary Human Peripheral Blood Mononuclear Cells (PBMCs); assay: Inflammatory signals in LPS-treated primary human PBMCs; type: cell-based; conditions: 100 uM, 24 hours
# Protocol: Human donor blood (8 mL) was collected in sodium citrate CPT tubes and centrifuged at 1,600×g for 20 minutes at room temperature. Buffy coat containing PBMCs was collected and transferred to a 50 mL conical tube containing 30 mL of RPMI-1640 medium at room temperature (supplemented with penicillin-streptomycin). PBMCs samples were centrifuged at 400×g for 10 minutes at 10° C. The pelleted PBMCs were washed twice in 10 ml of RPMI-1640 medium (supplemented with penicillin-streptomycin), then resuspended in RPMI-1640 medium (supplemented with penicillin-streptomycin, fetal bovine serum, and L-Glutamine). PBMCs were filtered through a 70 micron mesh to remove any cellular debris. […] PBMCs in a 96-well plate were rested for 30 minutes in a 37° C., 5% CO2 incubator, then subsequently treated with 10 μl of indicated compound. After 2 hours 10 μL of LPS (O111:B4) 1 mg/mL was added to test wells. After 24 hours of incubation at 37° C., 5% CO2, 100 μL of cell supernatant was collected and transferred to a 96-well plate (non-tissue treated, flat bottom). The plate was centrifuged at 350×g for 5 minutes at room temperature, and then the clear supernatant transferred to a new 96-well plate (non-tissue treated, flat bottom). The remaining cells were tested for viability using CellTiter-Glo® Luminescent Cell Viability Assay (Promega). The supernatant was analyzed for TNFα, IL-6 and […] Systems), using Luminex Immunoassay Technology (MAGPIX System). Cytokine levels of LPS treated DMSO control samples were set to 100%, and compound treated samples were expressed relative to this (Table 3).
# naïve CD4+ T cells = assay: Human regulatory T cell differentiation assay; type: cell-based; conditions: 6 days
# Protocol: Peripheral blood mononuclear cells (PBMCs) from whole blood donated by health volunteers were separated by Ficoll-Paque gradient centrifugation and naïve CD4^+ T cells were subsequently isolated using magnet beads (EasySep™ Human Naïve CD4^+ T Cell Isolation Kit, Cambridge, MA). For regulatory T cell (Treg) differentiation assay, naïve CD4^+ T cells were cultured (1-10×10^4 cells) in CTS OpTmizer medium for 6 days and stimulated with 5 ng/ml TGF-β, 100 U/ml IL-2, and ImmunoCult™ Human […] T Cell Activator; Stemcell #10990) with/without our Compounds. Cell viability was determined using a viability dye (eBioscience Fixable Viability Dye eFluor 780: ThermoFisher 65-0865-14) at 1:500 dilution. The cells were gated for Treg, defined as Live, CD11c^−, CD14^−, CD19^−, CD8^−, CD4^+, CD3^+, CD25^+, FOXP3^+. Percent (%) Tregs were calculated as percentage of CD4^+, CD25^+, FOXP3^+ cells over total CD4 T cells. Statistical analysis was performed with GraphPad Prism Software Using One-Way ANOVA.
# AhR = AhR activation in Caco-2 cells through CYP1A1 mRNA expression; conditions: overnight
# Protocol: Caco-2 cells from American Type Culture Collection (ATCC) were plated in a sterile tissue culture treated 96-well plate (ThermoFisher) at […], and grown overnight at 37° C., 5% CO2 in DMEM complete (Gibco) in order to achieve confluence. After the incubation medium was aspirated off of the Caco-2 monolayers, tissues were then washed with 200 μL of warmed PBS solution, and subsequently 190 μL of pre-warmed growth medium was added to each well. Compounds of interest were diluted at a 20× concentration in growth medium containing 2% DMSO, and 10 μL of compound solutions were added to respective wells in triplicate. Compounds where incubated overnight at 37° C., 5% CO2. 2-(1′H-indole-3′-carbonyl)-thiazole-4-carboxylic acid methyl ester (ITE) was used as the positive control for AhR activation at 1 and 100 μM concentrations. At the end of the incubation, medium was aspirated off of the Caco-2 cells, and the cells washed with 100 μL of cold PBS solution. RNA was extracted via the TaqMan™ Gene Expression Cells-to-CT™ Kit (ThermoFisher) according to the manufacturers protocol. The QuantStudio 6 Flex (Applied Biosciences) was used to analyze mRNA levels of CYP1A1 using GAPDH as the endogenous control. TaqMan™ probe sets for both genes were acquired from ThermoFisher. Samples were run in triplicate and data was analyzed using the QuantStudio software and reported as linear (Table 1) and log 2(ΔΔCT) values. Statistical analysis was performed using a two-tailed t-test comparing CYP1A1 levels in the presence of each individual compound to the vehicle negative control.
# [2] = test system: type II collagen arthritis; assay: In vivo rheumatoid arthritis model (semi-established type II collagen arthritis); design: species or system Lewis rats; conditions: 420 mg/kg PO BID, rats
# Protocol: A study was conducted to determine the efficacy of test articles dosed by the oral (PO) route for inhibition of the inflammation (paw swelling), cartilage destruction, and bone resorption that occurs in semi-established type II collagen arthritis in female Lewis rats. Rats (10 per group) were injected intradermally (ID) with porcine type II collagen to induce arthritis; one group of rats (4 per group) served as vehicle-treated naïve controls. […] Positive controls were treated PO, BID with the reference compound Tofacitinib citrate (10 mg/kg). The rats were euthanized for necropsy on study day 21 (animals #1-5 in each group, animals #1-2 in naïve group) or 22 (animals #6-10 in each group, animals #3-4 in naïve group). Efficacy evaluation was based on animal body weights (Table 9), daily ankle caliper measurements (FIG. 4), ankle diameter expressed as area under the curve (AUC) (Table 10), terminal hind paw weights (Table 11), histopathologic evaluation of hind paws (Ankle Inflammation score: Table 12, Ankle Pannus score: Table 13, Ankle Cartilage Damage score: Table 14, Ankle Bone Resorption score: Table 15, Ankle Periosteal Bone score: Table 16, Ankle Periosteal Bone Width: Table 17) and knees (Knee Inflammation score: Table 18, Knee Pannus score: Table 19, Knee Cartilage Damage score: Table 20, Knee Bone Resorption score: Table 21), and relative spleen to body weight ratio (Table 22). Terminal serum was analyzed by enzyme-linked immunosorbent assay (ELISA) for anti-type II collagen antibodies (IgG) (Table 23). […] Statistics were conducted using ordinary one-way ANOVA with Dunnett's multiple comparison correction in GraphPad Prism.
smiles,measurement,setting,value
O=C[C@H](O)[C@@H](O)[C@@H](O)CO [L-arabinose],% IL-8 (Vehicle + LPS = 100%),neutrophil; 500.0 μM,− (− = >90% Vehicle)
same,% MIP-1α (Vehicle + LPS = 100%),neutrophil; 500.0 μM,− (− = >90% Vehicle)
same,% MIP-1β (DMSO + LPS = 100%),neutrophil; 500.0 μM,− (− = >90% Vehicle)
same,% IL-8 (Vehicle + LPS = 100%),neutrophil; 1000.0 μM,− (− = >90% Vehicle)
same,% MIP-1α (Vehicle + LPS = 100%),neutrophil; 1000.0 μM,− (− = >90% Vehicle)
same,% MIP-1β (DMSO + LPS = 100%),neutrophil; 1000.0 μM,− (− = >90% Vehicle)
same,IL1β % DMSO control,[1],= ((=) 90%> <110% DMSO)
same,IL6 % DMSO control,[1],+ ((+) 50%> <90% DMSO)
same,TNFα % of DMSO control,[1],+ ((+) 50%> <90% DMSO)
same,Cell viability % DMSO,naïve CD4+ T cells; 0.5 mM,= (90%> <110%: =)
same,Cell viability % DMSO,naïve CD4+ T cells; 1 mM,= (90%> <110%: =)
"CC(O)CCO (stereo not shown) [butanediol, 1,3-butanediol]",% IL-8 (Vehicle + LPS = 100%),neutrophil; 100.0 μM,− (− = >90% Vehicle)
same,% MIP-1α (Vehicle + LPS = 100%),neutrophil; 100.0 μM,− (− = >90% Vehicle)
same,% MIP-1β (DMSO + LPS = 100%),neutrophil; 100.0 μM,+ (+ = <90% Vehicle)
same,% IL-8 (Vehicle + LPS = 100%),neutrophil; 500.0 μM,− (− = >90% Vehicle)
same,% MIP-1α (Vehicle + LPS = 100%),neutrophil; 500.0 μM,− (− = >90% Vehicle)
same,% MIP-1β (DMSO + LPS = 100%),neutrophil; 500.0 μM,+ (+ = <90% Vehicle)
same,Average CYP1A1 mRNA levels,AhR; 500.0 μM,− (- = <2-fold Vehicle)
same,IL1β % DMSO control,[1],= ((=) 90%> <110% DMSO)
"O=c1c(O)c(-c2ccc(O)c(O)c2)oc2cc(O)cc(O)c12 [quercetin, reference compound]",% IL-8 (Vehicle + LPS = 100%),neutrophil; 0.1 μM,− (− = >90% Vehicle)
same,% MIP-1α (Vehicle + LPS = 100%),neutrophil; 0.1 μM,− (− = >90% Vehicle)
same,% MIP-1β (DMSO + LPS = 100%),neutrophil; 0.1 μM,− (− = >90% Vehicle)
same,% IL-8 (Vehicle + LPS = 100%),neutrophil; 1.0 μM,− (− = >90% Vehicle)
same,% MIP-1α (Vehicle + LPS = 100%),neutrophil; 1.0 μM,− (− = >90% Vehicle)
same,% MIP-1β (DMSO + LPS = 100%),neutrophil; 1.0 μM,− (− = >90% Vehicle)
same,IL1β % DMSO control,[1],+ ((+) 50%> <90% DMSO)
same,Cell viability % DMSO,naïve CD4+ T cells; 100 nM,= (90%> <110%: =)
same,Cell viability % DMSO,naïve CD4+ T cells; 1 uM,= (90%> <110%: =)
c1ccc2[nH]ccc2c1 [indole],Average CYP1A1 mRNA levels,AhR; 1000.0 μM,+ (+ = >2-fold Vehicle)
O=C(O)c1ccccc1 [Benzoic acid],Average CYP1A1 mRNA levels,AhR; 10.0 μM,+ (+ = >2-fold Vehicle)
same,Average CYP1A1 mRNA levels,AhR; 100.0 μM,+ (+ = >2-fold Vehicle)
"COC(=O)c1csc(C(=O)c2c[nH]c3ccccc23)n1 [ITE, 2-(1′H-indole-3′-carbonyl)-thiazole-4-carboxylic acid methyl ester]",Average CYP1A1 mRNA levels,AhR; 1.0 μM,+++ (+++ = >10-fold Vehicle)
OCc1c[nH]c2ccccc12 [indole-3-carbinol],Average CYP1A1 mRNA levels,AhR; 1000.0 μM,+ (+ = >2-fold Vehicle)
Cn1cc(C[C@H](N)C(=O)O)c2ccccc21 [1-methylindole-3-alanine],Average CYP1A1 mRNA levels,AhR; 10.0 μM,+ (+ = >2-fold Vehicle)
same,Average CYP1A1 mRNA levels,AhR; 100.0 μM,+++ (+++ = >10-fold Vehicle)
CCC(=O)O [propionate],% IL-8 (Vehicle + LPS = 100%),neutrophil; 500.0 μM,− (− = >90% Vehicle)
same,% MIP-1α (Vehicle + LPS = 100%),neutrophil; 500.0 μM,+++ (+++ = <50% Vehicle)
same,% MIP-1β (DMSO + LPS = 100%),neutrophil; 500.0 μM,+++ (+++ = <50% Vehicle)
same,% IL-8 (Vehicle + LPS = 100%),neutrophil; 1000.0 μM,++ (++ = <70%Vehicle)
same,% MIP-1α (Vehicle + LPS = 100%),neutrophil; 1000.0 μM,+++ (+++ = <50% Vehicle)
same,% MIP-1β (DMSO + LPS = 100%),neutrophil; 1000.0 μM,+++ (+++ = <50% Vehicle)
same,% IL-8 (Vehicle + LPS = 100%),neutrophil; 3000.0 μM,+++ (+++ = <50% Vehicle)
same,% MIP-1α (Vehicle + LPS = 100%),neutrophil; 3000.0 μM,+++ (+++ = <50% Vehicle)
same,% MIP-1β (DMSO + LPS = 100%),neutrophil; 3000.0 μM,+++ (+++ = <50% Vehicle)
same,IL1β % DMSO control,[1],+ ((+) 50%> <90% DMSO)
"CCCC(=O)O [Butyric acid, reference compound]",Cell viability % DMSO,naïve CD4+ T cells; 3 mM,− (<90%: −)
same,Mean Ankle Diameter AUC (mm*day),[2],92.46 mm*day
same,Mean Ankle Periosteal Bone width (um),[2],573.30 um
same,Mean Knee Inflammation score (0-5),[2],4.83
same,Mean Terminal hind paw weights,[2],2.4759 g
same,"Mean body weight change, day −1 to 21 (%)",[2],−2.3%
same,Relative Spleen to Body Weight (Mean),[2],0.2416
same,Mean Ankle Bone Resorption score (0-5),"[2]; 0 = normal, 5 = severe",2.95
same,Mean Ankle Cartilage Damage score (0-5),"[2]; 0 = normal, 5 = severe",3.80
same,Mean Ankle Pannus score (0-5),"[2]; 0 = normal, 5 = severe",2.95
same,Mean Ankle Periosteal Bone score (0-5),"[2]; 0 = normal, 5 = severe",3.08
same,Mean Ankle inflammation score (0-5),"[2]; 0 = normal, 5 = severe",2.4759
same,Mean Knee Bone Resorption score (0-5),"[2]; 0 = normal, 5 = severe",2.43
same,Mean Knee Cartilage Damage score (0-5),"[2]; 0 = normal, 5 = severe",3.28
same,Mean Knee Pannus score (0-5),"[2]; 0 = normal, 5 = severe",2.43
same,Serum IgG,[2]; terminal serum ELISA for anti-type II collagen antibodies,5824.57 µg/mL
